Source: patent publication US20100104661A1, “DISCONTINUOUS METHODS OF TREATING CANCER” (priority 2006, published 2010)

Tests used:
[1] = tested on: node-positive breast cancer; conditions: adjuvant, sequentially to doxorubicin-containing chemotherapy; total population of patients with receptor-positive and receptor-negative tumors; cited from earlier work
[2] = tested on: AIDS-related Kaposi's sarcoma; conditions: 135 mg/m^2 every 3 weeks versus 100 mg/m^2 every 2 weeks; cited from earlier work
NSCLC = conditions: 100 mg/m^2 in patients previously treated with chemotherapy; cited from earlier work
[3] = tested on: 22Rv1 prostate tumor xenografts; test: 22Rv1 prostate tumor xenograft, first experiment (lonafarnib 3.5 days on/3.5 days off, docetaxel once weekly); assay type: in vivo, male athymic nude mice; conditions: single-agent docetaxel 20 mpk i.p. once weekly; after 3 weeks (21 days)
Protocol: (§1) Intermittent dosing of lonafarnib at 60 mpk BID around the administration of docetaxel was tested in two experiments using the 22Rv1 androgen-independent prostate cancer xenograft model. In both experiments 22Rv1 prostate tumor xenografts were grown in male athymic nude mice. When tumor volumes were approximately 100 mm^3, the animals were randomized (n=10 per treatment group) for grouping. […] In addition, tumor regressions were observed when intermittent lonafarnib was combined with docetaxel.
In the first experiment (see FIG. 1) male mice (n=10 per treatment group) bearing 22Rv1 tumor xenografts were treated with lonafarnib administered at either 30 mpk BID continuously or 60 mpk BID intermittently (3.5 days on/3.5 days off). Docetaxel was administered at 20 mpk once weekly after the fourth dose of lonafarnib. Tumor volumes were measured twice weekly. After 3 weeks (21 days) of treatment, single-agent docetaxel inhibited 22Rv1 tumor growth by 66%. Continuous treatment with single-agent lonafarnib at 30 mpk BID inhibited tumor growth by 85% and intermittent dosing of single-agent lonafarnib at 60 mpk BID inhibited tumor growth by 80%. When combined with weekly administration of docetaxel, continuous treatment with 30 mpk BID lonafarnib caused 22Rv1 tumors to regress by 23%. However, when combined with docetaxel, intermittent lonafarnib (60 mpk BID) caused the tumors to regress by 46%. […]

[4] = tested on: 22Rv1 prostate tumor xenografts; test: 22Rv1 prostate tumor xenograft, second experiment (lonafarnib 5 days on/5 days off, docetaxel once every 10 days); assay type: in vivo, male athymic nude mice; conditions: single-agent docetaxel 20 mpk i.p. once every 10 days; after 24 days
Protocol: as §1
The second experiment (see FIG. 3) was also performed with male mice (n=10 per treatment group) bearing 22Rv1 prostate tumor xenografts that were approximately 100 mm^3 in volume. Lonafarnib was administered at 30 mpk BID continuously or 60 mpk BID intermittently (5 days on/5 days off). Docetaxel was administered at 20 mpk once every 10 days after the second dose of lonafarnib. After 24 days of treatment, single-agent docetaxel inhibited 22Rv1 tumor growth by 78%. Continuous treatment with single-agent lonafarnib at 30 mpk BID inhibited tumor growth by 68% and intermittent dosing of single-agent lonafarnib at 60 mpk BID inhibited tumor growth by 78%. When combined with docetaxel, continuous treatment with 30 mpk BID lonafarnib caused 22Rv1 tumors to regress by 10%. However, when combined with docetaxel, intermittent lonafarnib (60 mpk BID) caused the tumors to regress by 37%. […]

CC(=O)O[C@H]1C(=O)[C@@]2(C)[C@H]([C@H](OC(=O)c3ccccc3)[C@]3(O)C[C@H](OC(=O)[C@H](O)[C@@H](NC(=O)c4ccccc4)c4ccccc4)C(C)=C1C3(C)C)[C@]1(OC(C)=O)CO[C@@H]1C[C@@H]2O [Taxol, paclitaxel]
effect on disease-free and overall survival [1]: overall favorable effect on disease-free and overall survival
toxicity of dosing schedules [2]: more toxic than the latter

CC(=O)O[C@@]12CO[C@@H]1C[C@H](O)[C@@]1(C)C(=O)[C@H](O)C3=C(C)[C@@H](OC(=O)[C@H](O)[C@@H](NC(=O)OC(C)(C)C)c4ccccc4)C[C@@](O)([C@@H](OC(=O)c4ccccc4)[C@H]21)C3(C)C [docetaxel]
toxicity at higher dose (NSCLC): associated with increased hematologic toxicity, infection, and treatment related mortality
inhibition of 22Rv1 tumor growth [3]: 66%
inhibition of 22Rv1 tumor growth [4]: 78%
